Data reported in patent US8148373B2, “Compounds” (AstraZeneca AB, priority 2008, dated 2012).

Assays:
[1] = biological target: T1, Adrenergic β2 (H292 cells) (Homo sapiens, UniProt P07550); test: Assay for Adrenergic β2 Mediated cAMP Production (concentration response, AlphaScreen cAMP detection); format: cell-based; details: for EC50: cAMP production, 60 minutes at room temperature, 300 μM rolipram, read-out: β2 pEC50 (converted); for β2 Intrinsic activity: fraction relative to the maximum activity determined for formoterol
T1 construct: endogenous in cells; host or cells: H292 cells
Method in brief: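 Intrinsic activity is relative to the per-experiment formoterol maximum, with pEC50 from a four-parameter logistic fit of cAMP levels quantified by AlphaScreen against standards. Cells (H292) got 300 μM rolipram for 10 min, then compound for 60 min at room temperature, 1% DMSO final.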

[2] = biological target: T2, human muscarinic acetylcholine M3 receptor (M3-ACh) (Homo sapiens, UniProt P20309); test: Muscarinic 3 Receptor Binding Assay ([3H]NMS competition, SPA); details: [3H]NMS 0.1 nM, CHO-K1 cell membranes, 16 hours at room temperature; read-out: M3 pIC50 (converted)
T2 construct: expressed in transfected cells; host or cells: CHO-K1 (Chinese Hamster Ovary) cell membranes
Method in brief: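 Competition SPA binding of 0.1 nM [3H]NMS (quarter Kd) to membranes from CHO-K1 cells expressing human M3, in 20 mM HEPES pH 7.4, 5 mM MgCl2, 1% DMSO. Incubated 16 h at room temperature; non-specific binding with 1 µM atropine. pIC50 from 50% reduction of specific binding.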

T1 sequence (P07550 whole entry): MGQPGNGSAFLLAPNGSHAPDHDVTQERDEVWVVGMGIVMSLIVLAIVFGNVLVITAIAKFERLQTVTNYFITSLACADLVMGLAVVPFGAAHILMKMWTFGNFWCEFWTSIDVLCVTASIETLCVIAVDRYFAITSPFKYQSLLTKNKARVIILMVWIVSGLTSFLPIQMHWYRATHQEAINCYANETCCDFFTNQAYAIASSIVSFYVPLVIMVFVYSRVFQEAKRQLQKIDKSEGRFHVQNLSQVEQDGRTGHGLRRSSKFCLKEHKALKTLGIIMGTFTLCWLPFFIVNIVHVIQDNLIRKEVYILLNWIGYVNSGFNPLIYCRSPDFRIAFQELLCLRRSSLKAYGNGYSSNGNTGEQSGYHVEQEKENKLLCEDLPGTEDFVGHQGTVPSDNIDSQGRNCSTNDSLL
T2 sequence (P20309 whole entry): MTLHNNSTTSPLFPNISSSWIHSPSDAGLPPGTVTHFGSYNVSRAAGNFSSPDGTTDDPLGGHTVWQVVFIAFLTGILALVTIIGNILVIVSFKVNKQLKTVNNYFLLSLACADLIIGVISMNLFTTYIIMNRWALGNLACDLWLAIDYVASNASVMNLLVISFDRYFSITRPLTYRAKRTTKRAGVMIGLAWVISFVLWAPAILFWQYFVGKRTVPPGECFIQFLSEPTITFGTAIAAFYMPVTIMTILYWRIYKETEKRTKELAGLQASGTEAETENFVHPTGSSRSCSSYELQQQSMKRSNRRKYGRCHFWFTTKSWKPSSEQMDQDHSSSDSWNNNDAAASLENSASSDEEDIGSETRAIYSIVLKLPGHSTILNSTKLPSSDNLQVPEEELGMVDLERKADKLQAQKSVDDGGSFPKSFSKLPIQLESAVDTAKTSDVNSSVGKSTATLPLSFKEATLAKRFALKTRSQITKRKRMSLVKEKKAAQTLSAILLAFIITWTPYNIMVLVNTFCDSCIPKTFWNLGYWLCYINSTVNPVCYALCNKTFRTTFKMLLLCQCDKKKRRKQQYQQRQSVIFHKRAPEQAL

Compound | EC50 [1] [nM] | β2 Intrinsic activity [1] | IC50 [2] [nM]
COC(=O)c1ccc(C(=O)N2CCOC3(CCN(Cc4cccc(CCNC[C@H](O)c5ccc(O)c6[nH]c(=O)ccc56)c4)CC3)C2)s1 [Example 31, (R)-Methyl 5-(9-(3-(2-(2-hydroxy-2-(8-hydroxy-2-oxo-1,2-dihydroquinolin-5-yl)ethylamino)ethyl)benzyl)-1-oxa-4,9-diazaspiro[5.5]undecane-4-carbonyl)thiophene-2-carboxylate ditrifluoroacetate] | 5.01 | 0.9 | 63.1
Cc1ccc(C(=O)N2CCOC3(CCN(Cc4cc(CCNC[C@H](O)c5ccc(O)c6[nH]c(=O)sc56)cc(F)c4F)CC3)C2)s1 [Example 32, (R)-7-(2-(3,4-Difluoro-5-((4-(5-methylthiophene-2-carbonyl)-1-oxa-4,9-diazaspiro[5.5]undecan-9-yl)methyl)phenethylamino)-1-hydroxyethyl)-4-hydroxybenzo[d]thiazol-2(3H)-one ditrifluoroacetate] | 3.16 | 1.1 | 39.8
Cc1ccc(C(=O)N2CCOC3(CN(Cc4cccc(CCNC[C@H](O)c5ccc(O)c6[nH]c(=O)sc56)c4)C3)C2)s1 [Example 33, (R)-4-Hydroxy-7-(1-hydroxy-2-(3-((8-(5-methylthiophene-2-carbonyl)-5-oxa-2,8-diazaspiro[3.5]nonan-2-yl)methyl)phenethylamino)ethyl)benzo[d]thiazol-2(3H)-one ditrifluoroacetate] | 6.31 | 1 | 12.6
Cc1ccc(C(=O)N2CCOC3(CCN(Cc4ccc(F)c(CCNC[C@H](O)c5ccc(O)c6[nH]c(=O)sc56)c4F)CC3)C2)s1 [Example 34, (R)-7-(2-(2,6-Difluoro-3-((4-(5-methylthiophene-2-carbonyl)-1-oxa-4,9-diazaspiro[5.5]undecan-9-yl)methyl)phenethylamino)-1-hydroxyethyl)-4-hydroxybenzo[d]thiazol-2(3H)-one ditrifluoroacetate] | 3.16 | 1 | 20
Cc1ccc(C(=O)N2CCOC3(CCN(Cc4ccc(F)c(CCNC[C@H](O)c5ccc(O)c6[nH]c(=O)ccc56)c4F)CC3)C2)s1 [Example 35, (R)-5-(2-(2,6-Difluoro-3-((4-(5-methylthiophene-2-carbonyl)-1-oxa-4,9-diazaspiro[5.5]undecan-9-yl)methyl)phenethylamino)-1-hydroxyethyl)-8-hydroxyquinolin-2(1H)-one ditrifluoroacetate] | 12.6 | 1 | 25.1
CC(C)c1nc(C(=O)N2CCOC3(CCN(Cc4cc(CCNC[C@H](O)c5ccc(O)c6[nH]c(=O)sc56)cs4)CC3)C2)cs1 [Example 36, (R)-4-Hydroxy-7-(1-hydroxy-2-(2-(5-((4-(2-isopropylthiazole-4-carbonyl)-1-oxa-4,9-diazaspiro[5.5]undecan-9-yl)methyl)thiophen-3-yl)ethylamino)ethyl)benzo[d]thiazol-2(3H)-one ditrifluoroacetate] | 6.31 | 1 | 0.501
Cc1ccc(C(=O)N2CC(F)(F)OC3(CCN(Cc4cccc(CCNC[C@H](O)c5ccc(O)c6[nH]c(=O)ccc56)c4)CC3)C2)s1 [Example 37, (R)-5-(2-(3-((2,2-Difluoro-4-(5-methylthiophene-2-carbonyl)-1-oxa-4,9-diazaspiro[5.5]undecan-9-yl)methyl)phenethylamino)-1-hydroxyethyl)-8-hydroxyquinolin-2(1H)-one ditrifluoroacetate] | 3.16 | 0.9 | 3.16
Cc1ccc(C(=O)N2CCOC3(CCN(Cc4cccc(OCCNC[C@H](O)c5ccc(O)c6[nH]c(=O)sc56)c4)CC3)C2)s1 [Example 38, (R)-4-Hydroxy-7-(1-hydroxy-2-(2-(3-((4-(5-methylthiophene-2-carbonyl)-1-oxa-4,9-diazaspiro[5.5]undecan-9-yl)methyl)phenoxy)ethylamino)ethyl)benzo[d]thiazol-2(3H)-one ditrifluoroacetate] | 20 | 0.8 | 2.51
CC(C)c1nc(C(=O)N2CCOC3(CCN(Cc4cccc(C(F)CNC[C@H](O)c5ccc(O)c6[nH]c(=O)sc56)c4)CC3)C2)cs1 (stereo partly drawn) [Example 39, 7-((1R)-2-(2-Fluoro-2-(3-((4-(2-isopropylthiazole-4-carbonyl)-1-oxa-4,9-diazaspiro[5.5]undecan-9-yl)methyl)phenyl)ethylamino)-1-hydroxyethyl)-4-hydroxybenzo[d]thiazol-2(3H)-one ditrifluoroacetate] | 100 | 0.9 | 0.316
CC(C)c1nc(C(=O)N2CCOC3(CCN(Cc4cc(CCNC[C@H](O)c5ccc(O)c6[nH]c(=O)sc56)ccc4F)CC3)C2)cs1 [Example 40, (R)-7-(2-(4-Fluoro-3-((4-(2-isopropylthiazole-4-carbonyl)-1-oxa-4,9-diazaspiro[5.5]undecan-9-yl)methyl)phenethylamino)-1-hydroxyethyl)-4-hydroxybenzo[d]thiazol-2(3H)-one ditrifluoroacetate] | 12.6 | 1.1 | 0.398
O=C(c1csc(-c2ccccc2)n1)N1CCOC2(CCN(Cc3cc(F)cc(CCNC[C@H](O)c4ccc(O)c5[nH]c(=O)sc45)c3)CC2)C1 [Example 41, (R)-7-(2-(3-Fluoro-5-((4-(2-phenylthiazole-4-carbonyl)-1-oxa-4,9-diazaspiro[5.5]undecan-9-yl)methyl)phenethylamino)-1-hydroxyethyl)-4-hydroxybenzo[d]thiazol-2(3H)-one ditrifluoroacetate] | 6.31 | 1.1 | 126
CC(C)c1nc(C(=O)N2CCOC3(CCN(Cc4cc(F)cc(CCNC[C@H](O)c5ccc(O)c6[nH]c(=O)sc56)c4)CC3)C2)cs1 [Example 42, (R)-7-(2-(3-Fluoro-5-((4-(2-isopropylthiazole-4-carbonyl)-1-oxa-4,9-diazaspiro[5.5]undecan-9-yl)methyl)phenethylamino)-1-hydroxyethyl)-4-hydroxybenzo[d]thiazol-2(3H)-one ditrifluoroacetate] | 7.94 | 1 | 0.631
CC(C)(C)c1nc(C(=O)N2CCOC3(CCN(Cc4cc(CCNC[C@H](O)c5ccc(O)c6[nH]c(=O)sc56)cs4)CC3)C2)cs1 [Example 43, (R)-7-(2-(2-(5-((4-(2-tert-Butylthiazole-4-carbonyl)-1-oxa-4,9-diazaspiro[5.5]undecan-9-yl)methyl)thiophen-3-yl)ethylamino)-1-hydroxyethyl)-4-hydroxybenzo[d]thiazol-2(3H)-one ditrifluoroacetate] | 5.01 | 0.8 | 39.8
CC(C)c1nc(C(=O)N2CC(F)(F)OC3(CCN(Cc4cccc(CCNC[C@H](O)c5ccc(O)c6[nH]c(=O)ccc56)c4)CC3)C2)cs1 [Example 44, (R)-5-(2-(3-((2,2-Difluoro-4-(2-isopropylthiazole-4-carbonyl)-1-oxa-4,9-diazaspiro[5.5]undecan-9-yl)methyl)phenethylamino)-1-hydroxyethyl)-8-hydroxyquinolin-2(1H)-one ditrifluoroacetate] | 2.51 | 1 | 3.16
